For one experiment, the system named is K-562. Description: Proliferation inhibition, CellTiter-Glo, K-562. It is filed as cell-based, human. Particulars: for IC50: Homo sapiens. An outline of the steps: (§1)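 About 10,000 cells per well in RPMI-1640 with 10% FBS. Compounds added 2 h after seeding at eight concentrations in duplicate (0.2% DMSO as 100% proliferation), then incubated ~96 h at 37° C, 5% CO2. ATP measured by CellTiter-Glo luminescence; IC50 from four-parameter logistic fit.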

A further experiment deals with T1, WT FLT3 (Homo sapiens, UniProt P36888).
T1 construct: purchased Invitrogen PR4666C
T1 sequence (P36888 564-993 limits assumed): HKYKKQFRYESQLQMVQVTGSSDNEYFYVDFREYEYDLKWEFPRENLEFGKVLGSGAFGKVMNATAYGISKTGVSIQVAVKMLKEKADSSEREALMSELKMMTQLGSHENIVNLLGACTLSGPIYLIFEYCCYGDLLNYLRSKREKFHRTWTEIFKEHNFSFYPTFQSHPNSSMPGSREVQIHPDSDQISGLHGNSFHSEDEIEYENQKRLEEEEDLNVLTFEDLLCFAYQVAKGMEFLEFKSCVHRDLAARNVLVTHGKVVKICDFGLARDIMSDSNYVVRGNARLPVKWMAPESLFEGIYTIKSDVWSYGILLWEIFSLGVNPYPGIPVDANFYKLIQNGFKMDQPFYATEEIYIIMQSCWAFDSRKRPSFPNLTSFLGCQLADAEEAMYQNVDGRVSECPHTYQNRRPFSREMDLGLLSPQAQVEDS
Description: WT FLT3 Lance Ultra TR-FRET kinase assay. Format: biochemical. An outline of the steps: (§2)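 Lance Ultra TR-FRET with 50 nM ULight-JAK-1 (Tyr1023) peptide, Eu-anti-phosphotyrosine (PT66) detection, in HEPES pH 7.5 buffer at 23° C, 30 min enzyme/compound preincubation. WT: 0.5 nM enzyme, 100 μM ATP, 30 min; ITD: 0.0625 nM, 50 μM ATP, 60 min. IC50 by four-parameter fit of 11-point 3× dilutions.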
(In TR-FRET formats the signal depends on donor and acceptor labels being close together.)

The target in a further experiment is T2, FLT3-ITD (Homo sapiens, UniProt P36888, DUP595-601).
T2 construct: purchased Signalchem F-12-12CG-10
T2 sequence (P36888 with tags, fused parts or gaps DUP595-601 limits assumed): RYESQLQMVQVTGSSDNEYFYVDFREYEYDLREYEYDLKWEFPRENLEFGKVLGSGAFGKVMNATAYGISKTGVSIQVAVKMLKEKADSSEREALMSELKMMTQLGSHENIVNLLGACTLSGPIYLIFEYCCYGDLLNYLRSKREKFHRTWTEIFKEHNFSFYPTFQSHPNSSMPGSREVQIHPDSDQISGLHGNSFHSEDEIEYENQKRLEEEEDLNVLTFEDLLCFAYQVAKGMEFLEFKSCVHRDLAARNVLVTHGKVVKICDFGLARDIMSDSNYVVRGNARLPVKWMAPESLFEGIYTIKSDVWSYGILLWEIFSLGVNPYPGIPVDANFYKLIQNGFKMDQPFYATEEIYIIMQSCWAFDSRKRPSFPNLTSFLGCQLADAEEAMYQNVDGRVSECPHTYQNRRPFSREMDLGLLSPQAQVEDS
Description: FLT3-ITD Lance Ultra TR-FRET kinase assay. Format: biochemical. An outline of the steps:
as §2

In the next experiment the test system is MOLM-13. Description: Proliferation inhibition, CellTiter-Glo, MOLM-13. Format: cell-based, human. Particulars: for IC50: Homo sapiens, MOLM-13 cells. The method, boiled down:
as §1

The next experiment relates to MV-4-11. Description: Proliferation inhibition, CellTiter-Glo, MV-4-11. Particulars: for IC50: Homo sapiens. It is filed as cell-based, human. The method, boiled down:
as §1
On the technique in general: In ATP-based viability assays light output follows the ATP content of the culture.

Where [1] appears, read: K562, 96 h, K-562 cells, IC50 (4 days), CellTiter-Glo, read-out: K-562 IC50.
The mark [2] stands for this setting: K562 cells, read-out: IC50 in K562 cells.
Where [3] appears, read: 96 h, IC50 (4 days), CellTiter-Glo, read-out: MOLM-13 IC50.
The mark [4] stands for this setting: read-out: IC50 in MOLM-13 cells.
The mark [5] stands for this setting: MV4-11, 96 h, MV-4:11 cells, IC50 (4 days), CellTiter-Glo, read-out: MV-4:11 IC50.
The mark [6] stands for this setting: MV4-11 cells, read-out: IC50 in MV4-11 cells.

Read-outs that look alike come from different tables or passages of the source.

For the compound `C=CC(=O)Nc1cccc(Nc2nc(N3CCC[C@H](NC(=O)c4ccc(C5CC5)cc4)[C@@H]3C)cnc2C(N)=O)c1` [Compound C-1, reference compound], the IC50 (as a rule, the concentration that gives 50% inhibition) in the experiment on K-562 (setting [1]) is above 0.5 µM; in the experiment on K-562 (setting [2]), above 0.1 µM; at WT FLT3, above 0.001 µM; against FLT3-ITD, above 0.001 µM; in the experiment on MOLM-13 (setting [3]), above 0.5 µM; in the experiment with MOLM-13 (setting [4]), above 0.1 µM. The IC50 with MV-4-11 (setting [5]) is above 0.5 µM; with MV-4-11 (setting [6]), above 0.1 µM. Also, in the experiment with K-562 (K562 cells), the “Ymax in K562 cells” value came to 0%. In addition, the “Ymax in MOLM-13 cells” value with MOLM-13 was 0%. Also, the “Ymax in MV4-11 cells” value in the experiment with MV-4-11 (MV4-11 cells) was found to be 9.7%.
In the case of `C=CC(=O)Nc1cc(Nc2nc(NC3CCOCC3)c(CC)nc2C(N)=O)ccc1N1CCC(N2CCN(C)CC2)CC1` [Compound C-2, reference compound], the IC50 was 0.01 to 0.1 µM with K-562 (setting [1]); 0.044 µM with K-562 (setting [2]); 0.000501 to 0.001 µM against WT FLT3; 0.000501 to 0.001 µM against FLT3-ITD; 0.01 to 0.1 µM with MOLM-13 (setting [3]); 0.0192 µM with MOLM-13 (setting [4]). Also, the IC50 was 0.001 to 0.01 µM in the experiment on MV-4-11 (setting [5]) and 0.005 µM with MV-4-11 (setting [6]). Moreover, the “Ymax in K562 cells” value in the experiment on K-562 (K562 cells) is 95.8%. Also, the “Ymax in MOLM-13 cells” value in the experiment on MOLM-13 is 98.6%. Further, the “Ymax in MV4-11 cells” value in the experiment with MV-4-11 (MV4-11 cells) stood at 99.1%.
With `C=CC(=O)Nc1cc(Nc2nc(N[C@H]3CC[C@@](C)(O)CC3)c(CC)nc2C(N)=O)ccc1C` [Compound C-3, reference compound], the IC50 was above 0.5 µM in the experiment with K-562 (setting [1]); above 0.1 µM in the experiment with K-562 (setting [2]); above 0.001 µM against WT FLT3; above 0.001 µM at FLT3-ITD; above 0.5 µM in the experiment with MOLM-13 (setting [3]); above 0.1 µM in the experiment with MOLM-13 (setting [4]). Also, the IC50 in the experiment with MV-4-11 (setting [5]) is above 0.5 µM; with MV-4-11 (setting [6]), above 0.1 µM. For the same compound, in the experiment on K-562 (K562 cells), the “Ymax in K562 cells” value came out at 0%. Also, the “Ymax in MOLM-13 cells” value in the experiment with MOLM-13 turned out to be 0%. The “Ymax in MV4-11 cells” value with MV-4-11 (MV4-11 cells) worked out at 6.8%.
